US20170044104A1, “NEW PESTICIDAL COMPOUNDS AND USES” (BAYER CROPSCIENCE AG, priority 2013, published 2017)

Legend:
[1] = tested on: Haemonchus contortus; experiment: Haemonchus contortus (HAEMCO) larval mortality assay; details: 120 h; for mortality at 20 ppm: application rate 20 ppm; for Emax at 0.8 ppm / Emax at 4 ppm / Emax at 20 ppm: comparative test, 5 dat, read-out: % Efficacy
Protocol: (§1) Solvent: dimethyl sulfoxide
(§2) To produce a suitable preparation of active compound, 10 mg of active compound are dissolved in 0.5 ml solvent, and the concentrate is diluted with “Ringer's solution” to the desired concentration.
Approximately 40 larvae of the red stomach worm (Haemonchus contortus) are transferred into a test tube containing compound solution.
After 5 days percentage of larval mortality are recorded. 100% efficacy means all larvae are killed, 0% efficacy means no larvae are killed.

[2] = tested on: Cooperia curticei; experiment: Cooperia curticei (COOPCU) larval mortality assay; details: 120 h, after 5 days, read-out: activity (percentage of larval mortality); for mortality at 20 ppm: application rate 20 ppm; for mortality at 4 ppm: application rate 4 ppm
Protocol: as §1, §2
Approximately 40 nematode larvae (Cooperia curticei) are transferred into a test tube containing the compound solution.
After 5 days percentage of larval mortality is recorded. 100% efficacy means all larvae are killed; 0% efficacy means no larvae are killed.

[3] = after 5 days, read-out: activity (percentage of larval mortality)

Compound: O=C(NCCc1cccc(-c2cncc(F)c2)c1)c1ccccc1C(F)(F)F [Example 1-3]
- mortality at 20 ppm [1, 3]: 90%

Compound: Cc1nc(Cl)ccc1-c1cccc(CCNC(=O)c2ccccc2C(F)(F)F)c1 [Example 1-5]
- mortality at 20 ppm [1, 3]: 90%

Compound: Cc1cc(-c2ccc(CCNC(=O)c3ccccc3C(F)(F)F)cc2)ccn1 [Example 1-11]
- mortality at 20 ppm [1, 3]: 80%

Compound: O=C(NCCc1ccc(-c2ccc(C(F)(F)F)nc2)cc1)c1ccccc1C(F)(F)F [Example 1-12]
- mortality at 20 ppm [1, 3]: 90%
- mortality at 20 ppm [2]: 100%

Compound: O=C(NCCc1ccc(-c2ccncc2)cc1)c1ccccc1C(F)(F)F [Example 1-13]
- mortality at 20 ppm [2]: 80%

Compound: O=C(NCCc1ccc(-c2cncc(F)c2)cc1)c1ccccc1C(F)(F)F [Example 1-14]
- mortality at 20 ppm [1, 3]: 90%
- mortality at 20 ppm [2]: 100%

Compound: O=C(NCCc1ccc(-c2ccc(Cl)nc2)cc1)c1ccccc1C(F)(F)F [Example 1-15]
- mortality at 4 ppm ([1]; application rate 4 ppm, after 5 days, read-out: activity (percentage of larval mortality)): 90%
- mortality at 20 ppm [2]: 100%

Compound: O=C(NCCc1ccc(-c2ccc(OCC(F)(F)F)nc2)cc1)c1cccnc1C(F)(F)F [Example 1-18]
- mortality at 20 ppm [2]: 100%

Compound: Cc1ncccc1-c1ccc(CCNC(=O)c2cccnc2C(F)(F)F)cc1 [Example 1-21]
- mortality at 20 ppm [2]: 100%

Compound: Cc1occc1-c1ccc(CCNC(=O)c2cccnc2C(F)(F)F)cc1 [Example 1-23]
- mortality at 20 ppm [2]: 80%

Compound: O=C(NCCc1ccc(-c2ccnc(Cl)c2)cc1)c1cccnc1C(F)(F)F [Example 1-26]
- mortality at 20 ppm [2]: 90%

Compound: O=C(NCCc1ccc(-c2ccnc(F)c2)cc1)c1cccnc1C(F)(F)F [Example 1-27]
- mortality at 20 ppm [1, 3]: 80%
- mortality at 20 ppm [2]: 80%

Compound: O=C(NCCc1ccc(-c2cnccc2Cl)cc1Cl)c1ccccc1C(F)(F)F [Example 1-31]
- mortality at 20 ppm [2]: 100%

Compound: O=C(NCCc1ccc(-c2ccc(OCC(F)(F)F)nc2)cc1Cl)c1ccccc1C(F)(F)F [Example 1-32]
- mortality at 20 ppm [1, 3]: 90%
- mortality at 20 ppm [2]: 100%

Compound: O=C(NCCc1ccc(-c2ccnc(F)c2)cc1Cl)c1ccccc1C(F)(F)F [Example 1-34]
- mortality at 20 ppm [2]: 100%

Compound: O=C(NCCc1ccc(-c2ccoc2)cc1Cl)c1ccccc1C(F)(F)F [Example 1-35]
- mortality at 20 ppm [1, 3]: 100%
- Emax at 0.8 ppm [1]: 80%
- Emax at 4 ppm [1]: 90%
- Emax at 20 ppm [1]: 100%
- mortality at 20 ppm [2]: 100%

Compound: O=C(NCCc1ccc(-c2ccncc2)cc1Cl)c1ccccc1C(F)(F)F [Example 1-36]
- mortality at 20 ppm [2]: 80%

Compound: O=C(NCCc1ccc(-c2ccc(C(F)(F)F)nc2)cc1Cl)c1ccccc1C(F)(F)F [Example 1-38]
- mortality at 20 ppm [1, 3]: 100%
- Emax at 0.8 ppm [1]: 100%
- Emax at 4 ppm [1]: 100%
- Emax at 20 ppm [1]: 100%
- mortality at 20 ppm [2]: 100%

Compound: Cc1occc1-c1ccc(CCNC(=O)c2ccccc2C(F)(F)F)c(Cl)c1 [Example 1-40]
- mortality at 20 ppm [1, 3]: 100%
- mortality at 20 ppm [2]: 100%

Compound: O=C(NCCc1ccc(-c2cccc(Cl)n2)cc1Cl)c1ccccc1C(F)(F)F [Example 1-41]
- mortality at 20 ppm [1, 3]: 90%
- mortality at 20 ppm [2]: 100%

Compound: CC(C)Oc1ccc(-c2ccc(CCNC(=O)c3ccccc3C(F)(F)F)c(Cl)c2)cn1 [Example 1-43]
- mortality at 20 ppm [1, 3]: 100%
- Emax at 0.8 ppm [1]: 100%
- Emax at 4 ppm [1]: 100%
- Emax at 20 ppm [1]: 100%
- mortality at 20 ppm [2]: 100%

Compound: O=C(NCCc1ccc(-c2cc(Cl)nc(Cl)c2)cc1Cl)c1ccccc1C(F)(F)F [Example 1-46]
- mortality at 20 ppm [2]: 100%

Compound: Cc1nc(C)c(-c2ccc(CCNC(=O)c3ccccc3C(F)(F)F)c(Cl)c2)s1 [Example 1-50]
- mortality at 20 ppm [2]: 90%

Compound: O=C(NCCc1ccc(-c2ccnc(F)c2)cc1)c1ccccc1C(F)(F)F [Example 1-51]
- mortality at 20 ppm [2]: 100%

Compound: O=C(NCCc1ccc(-c2ccoc2)cc1)c1ccccc1C(F)(F)F [Example 1-52]
- mortality at 20 ppm [2]: 100%

Compound: O=C(NCCc1ccc(-c2cccc(Cl)n2)cc1)c1ccccc1C(F)(F)F [Example 1-55]
- mortality at 20 ppm [2]: 100%

Compound: O=C(NCCc1ccc(-c2cccnc2Cl)cc1)c1ccccc1C(F)(F)F [Example 1-56]
- mortality at 20 ppm [1, 3]: 80%
- mortality at 20 ppm [2]: 80%

Compound: O=C(NCCc1ccc(-c2cccnc2)cc1)c1ccccc1C(F)(F)F [Example 1-57]
- mortality at 20 ppm [1, 3]: 80%
- mortality at 20 ppm [2]: 100%

Compound: O=C(NCCc1ccc(-c2ccc(OCC(F)(F)F)nc2)cc1)c1ccccc1C(F)(F)F [Example 1-58]
- mortality at 20 ppm [1, 3]: 80%
- mortality at 20 ppm [2]: 100%

Compound: Cc1occc1-c1ccc(CCNC(=O)c2ccccc2C(F)(F)F)cc1 [Example 1-59]
- mortality at 20 ppm [2]: 100%

Compound: Cn1cc(-c2ccc(CCNC(=O)c3ccccc3C(F)(F)F)cc2)cn1 [Example 1-60]
- mortality at 20 ppm [1, 3]: 80%
- mortality at 20 ppm [2]: 100%

Compound: O=C(NCCc1ccc(-c2ccc(F)nc2)cc1)c1ccccc1C(F)(F)F [Example 1-62]
- mortality at 20 ppm [1, 3]: 100%
- Emax at 0.8 ppm [1]: 80%
- Emax at 4 ppm [1]: 90%
- Emax at 20 ppm [1]: 100%
- mortality at 20 ppm [2]: 100%

Compound: O=C(NCCc1ccc(-c2ccnc(Cl)c2)cc1)c1ccccc1C(F)(F)F [Example 1-64]
- mortality at 20 ppm [1, 3]: 80%
- mortality at 20 ppm [2]: 100%

Compound: O=C(NCCc1ccc(-c2ccnc(Cl)c2)cc1Cl)c1ccccc1C(F)(F)F [Example 1-65]
- mortality at 20 ppm [2]: 90%

Compound: O=C(NCC(F)(F)c1ccc(-c2ccc(Cl)nc2)cc1Cl)c1cccnc1C(F)(F)F [Example 1-67]
- mortality at 20 ppm [1, 3]: 90%
- mortality at 4 ppm [2]: 90%

Compound: O=C(NCC(F)c1ccc(-c2ccc(C(F)(F)F)nc2)cc1Cl)c1cccnc1C(F)(F)F (stereo not drawn) [Example 1-71]
- mortality at 20 ppm [1, 3]: 90%
- mortality at 20 ppm [2]: 100%

Compound: O=C(NCC(F)c1ccc(-c2ccc(C(F)(F)F)nc2)cc1Cl)c1nccnc1C(F)(F)F (stereo not drawn) [Example 1-72]
- mortality at 20 ppm [1, 3]: 100%
- mortality at 20 ppm [2]: 100%

Compound: O=C(NCC(F)c1ccc(-c2cccnc2Cl)cc1Cl)c1nccnc1C(F)(F)F (stereo not drawn) [Example 1-79]
- mortality at 20 ppm [1, 3]: 100%
- mortality at 20 ppm [2]: 100%

Compound: O=C(NCC(F)c1ccc(-c2cncc(Cl)c2)cc1Cl)c1cccnc1C(F)(F)F (stereo not drawn) [Example 1-83]
- mortality at 20 ppm [1, 3]: 100%
- mortality at 20 ppm [2]: 100%

Compound: CC(C)Oc1ccc(-c2ccc(C(F)(F)CNC(=O)c3ccccc3C(F)(F)F)c(Cl)c2)cn1 [Example 1-91]
- mortality at 20 ppm [2]: 100%

Compound: CC(F)(CNC(=O)c1nccnc1C(F)(F)F)c1ccc(-c2cncc(F)c2)cc1Cl (stereo not drawn) [Example 1-102]
- mortality at 20 ppm [1, 3]: 100%
- mortality at 20 ppm [2]: 100%

Compound: CC(F)(CNC(=O)c1c(F)cccc1F)c1ccc(-c2cncc(F)c2)cc1Cl (stereo not drawn) [Example 1-103]
- mortality at 20 ppm [1, 3]: 100%

Compound: O=C(NCC(F)(F)c1ccc(-c2ccc(C(F)(F)F)nc2)cc1F)c1ccccc1C(F)(F)F [Example 1-105]
- mortality at 20 ppm [2]: 90%

Compound: COc1ccc(-c2ccc(C(F)(F)CNC(=O)c3ccccc3C(F)(F)F)c(F)c2)cn1 [Example 1-110]
- mortality at 20 ppm [1, 3]: 90%
- mortality at 20 ppm [2]: 100%

Compound: O=C(NCC(F)(F)c1ccc(-c2ccc(Cl)nc2)cc1F)c1ccccc1C(F)(F)F [Example 1-114]
- mortality at 20 ppm [1, 3]: 80%
- mortality at 20 ppm [2]: 100%

Compound: CN(C)c1ccc(-c2ccc(C(F)(F)CNC(=O)c3ccccc3C(F)(F)F)c(C(F)(F)F)c2)cn1 [Example 1-125]
- mortality at 20 ppm [2]: 80%

Compound: CN(C)c1ncc(-c2ccc(C(F)(F)CNC(=O)c3ccccc3C(F)(F)F)c(F)c2)cn1 [Example 1-146]
- mortality at 20 ppm [2]: 100%

Compound: CN(C)c1ncc(-c2ccc(C(F)(F)CNC(=O)c3ccccc3C(F)(F)F)c(C(F)(F)F)c2)cn1 [Example 1-149]
- mortality at 4 ppm [2]: 90%
